Like-named read-outs stand apart in the source and are kept apart here.
Key:
[1] = system: SU62 patient-derived colon cancer organoid model; assay: organoid colony formation assay, SU62; assay type: cell-based, human
Procedure: The IC50 values for Compound 1 inhibition of colony formation and viability were determined for the patient-derived colon cancer organoid models: SU60, T002C, SU62, SU34, SU103, T03SC, and SU106, patient-derived pancreatic cancer organoid models PA016SF, PA0143F, T016P, and T028P, and a patient-derived breast cancer organoid model FS5S3.
Colony formation and viability assays were performed in multiwell plates seeded with organoids using an in vitro culture system composed of a Matrigel layer, media containing a defined set of growth factors, and co-culture with Wnt3 A-secreting mouse embryonic fibroblasts. Assays were initiated by adding either DMSO as a negative control, or an inhibitor panobinostatat 100×IC50 concentration as a positive control, or serially diluted Compound 1. The cultures were incubated for 168 or 144 hours after which the number of viable organoids in each test well was assessed respectively using one of two detection methods: CTG or staining with calcein-AM followed by imaging and colony counting. Colony count or viability of cells treated with compound 1 was expressed as a percent of the negative control. Aggregated Percent of Control values were plotted against the corresponding Compound 1 concentration and the absolute IC50 value was determined from a non-linear regression curve as the concentration where inhibition was 50% of the control.

[2] = system: KYSE-150 human esophageal cancer xenograft; assay type: in vivo; details: for Median Tumor Volumes Day 21: KYSE-150 CDX Study #2, female NOD/SCID mice; for % TGI / Median Tumor Volumes Diff.: KYSE-150 Study #2; for % TGI: Day 21; for Median Tumor Volumes Diff.: Day 21 minus Day 1
Procedure: The therapeutic in vivo efficacy of Compound 1 was evaluated in SU60 colorectal cancer, KYSE-150 esophageal cancer, COH70 triple-negative breast cancer, GXA-3036 gastric adenocarcinoma and OCI-LY19 Diffuse Large B-Cell Non-Hodgkin's Lymphoma xenograft models. In all studies, efficacy was determined based on percent tumor growth inhibition (TGI), differences in mean tumor growth, and statistical assessment of differences in net tumor volume distributions on the day of TGI analysis between control and treated animals. Tolerability was assessed based on differences in mean body weights between control and treated animals over the course of the study.
Study #2—The in vivo therapeutic efficacy and tolerability of Compound 1, administered orally as the lysine salt suspended in a vehicle comprised of 10% PEG 400 and 90% of 0.5% MC, was evaluated in the KYSE-150 ESCC CDX model established in female NOD/SCID mice. Each mouse was inoculated subcutaneously in the right flank with 1×10^7 KYSE-150 tumor cells (0.1 ml) suspended in 50% Matrigel. When the average tumor size reached ˜153 mm3, test animals were randomized into 4 groups consisting of 8 mice per group and treatments were initiated. Control mice received 10% PEG 400 and 90% of 0.5% MC vehicle PO QDx21. Treated mice received the Compound 1 lysine salt form suspended in vehicle at 10, 15, or 20 mg/kg on the same schedule. TGI was determined on Day 21 as (1−Difftreated/Diffcontrol)×100. Individual tumors were measured twice weekly in two dimensions using a caliper, and the tumor volumes (TV) in mm3 were calculated using the formula: TV=0.5 a×b2, where a and b are the long and short tumor diameters in mm, respectively; Mean tumor volumes±SEM were calculated and plotted versus days of dosing (FIG. 12 left panel). Body weights were measured twice weekly. Body weights±SEM were calculated and plotted versus days of dosing (FIG. 12 right panel).
The difference in mean net tumor volumes on the day of TGI analysis for treated versus control animals was evaluated statistically using one-way ANOVA followed by Dunnetts multiple comparisons test. Adjusted p-values are shown where a calculated probability (p)≤0.05 was considered statistically significant.

[3] = system: MDA-MB-231 cells; assay: cell cycle analysis in MDA-MB-231 cells; assay type: cell-based
Procedure: FIG. 3 illustrates that Compound 1 induces cell cycle arrest in S-phase. […] Cell cycle analysis was performed with MDA-MB-231 cells and using MultiCycle AV DNA analysis software.

[4] = system: HT-29; assay: cell-proliferation assay (BrdU, CTG), HT-29; assay type: cell-based; details: HT-29, human colorectal adenocarcinoma, mean
Procedure: Compound 1 was evaluated in in vitro cell-proliferation assays (BrdU assay, MTS assay, or Cell Titer Glo (CTG) assay) in multiple cancer cell lines and patient-derived organoid models to determine half-maximal inhibitory concentrations (IC50s).
Viability and BrdU thymidine incorporation assays were performed in multiwell plates seeded with cells in growth medium. After seeding, multiwell plates were cultured for 24 hours in a humidified incubator at 37° C. to promote adherence. […] The cultures were incubated for 168 hours after which the number of viable cells or the amount of thymidine incorporation in each test well was assessed by the methods as indicated above. Readouts were performed using an EnVision® Multilabel Reader (PerkinElmer, Waltham, MA) and the results were expressed as a percent of the negative control. Percent of Control values were plotted against the corresponding Compound 1 concentration and the relative IC50 value was determined from a non-linear regression curve as the concentration where inhibition was half-maximal. For cell lines where the number of IC50 determinations exceeded one, the IC50 was expressed as the mean IC50±SD.
Half-maximal inhibitory concentration (IC50) values for Compound 1 inhibition of cell proliferation were determined for nine cancer cell lines and one normal human fibroblastcell line.

## CC(C)c1ccc(N(C)c2ccc3c(c2)OCC[C@H]3CNc2cnccc2C(=O)O)cc1 [Compound 1, 3-({[(4R)-7-{methyl[4-(propan-2-yl)phenyl]amino}-3,4-dihydro-2H-1-benzopyran-4-yl]methyl}amino)pyridine-4-carboxylic acid]
[1]; Homo sapiens, SU62 colorectal carcinoma model
  IC50: < 0.15 µM
[1]; SU62 human colorectal carcinoma organoid, 144 hrs, Colony Counts
  IC50: 0.149 µM
[2]; lysine salt 10 mg/kg (free acid equivalents) PO QD x21
  Median Tumor Volumes Day 21: 1027 mm^3
[2]; lysine salt 15 mg/kg (free acid equivalents) PO QD x21
  Median Tumor Volumes Day 21: 620 mm^3
[2]; lysine salt 20 mg/kg (free acid equivalents) PO QD x21
  Median Tumor Volumes Day 21: 469 mm^3
[2]; 10 mg/kg PO QD x21
  % TGI: 54%
  Median Tumor Volumes Diff.: 876 mm^3
[2]; 15 mg/kg PO QD x21
  % TGI: 76%
  Median Tumor Volumes Diff.: 468 mm^3
[2]; 20 mg/kg PO QD x21
  % TGI: 84%
  Median Tumor Volumes Diff.: 315 mm^3
[3]
  effect on cell cycle: increased proportion of cells in S-phase in a dose-dependent manner
[4]; 168 hours
  IC50: 0.0235 µM
[4]; Homo sapiens, HT-29, 168 h
  IC50: < 0.04 µM
